# Reference: the supplement of paper PMC12137928
# Structures can show the parent of a compound that is named as a salt.
# Tested on: HCT116
# Conditions: 72 h
# Procedure, shortened: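 For IC50 and maximal efficacy, four-parameter Hill fits were used. Input values were CellTiter-Glo luminescence from HCT116 cells seeded at 250 per well in 1536-well plates, normalized to vehicle (0%) and positive control (-100%). Pattern correction followed normalization.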
IC50 cell viability (ICRF193 0 nM) [µM],IC50 cell viability (ICRF193 200 nM) [µM],SMILES
> 45.8,> 45.8,COC[C@H]1C[C@@H](c2nc(-c3ccc4c(c3)COc3cc5c(ccc6nc([C@@H]7CC[C@H](C)N7C(=O)[C@@H](NC(=O)OC)C(C)C)[nH]c65)cc3-4)c[nH]2)N(C(=O)[C@H](NC(=O)OC)c2ccccc2)C1 [Velpatasvir]
> 45.8,> 45.8,CCCS(=O)(=O)Nc1ccc(F)c(C(=O)c2c[nH]c3ncc(-c4ccc(Cl)cc4)cc23)c1F [Vemurafenib]
> 45.8,> 45.8,CC1(C)CCC(CN2CCN(c3ccc(C(=O)NS(=O)(=O)c4ccc(NCC5CCOCC5)c([N+](=O)[O-])c4)c(Oc4cnc5[nH]ccc5c4)c3)CC2)=C(c2ccc(Cl)cc2)C1 [Venetoclax (ABT-199)]
> 45.8,> 45.8,COc1ccc(C(=O)N2CCN(c3ccc4c(c3)CCC(=O)N4)CC2)cc1OC [Vesnarinone]
> 45.8,> 45.8,C=CC(N)CCC(=O)O (centres undefined) [Vigabatrin]
> 45.8,> 45.8,N#Cc1ccc2[nH]cc(CCCCN3CCN(c4ccc5oc(C(N)=O)cc5c4)CC3)c2c1 [Vilazodone Hydrochloride]
> 45.8,> 45.8,N#C[C@@H]1CCCN1C(=O)CNC12CC3CC(CC(O)(C3)C1)C2 [Vildagliptin]
> 45.8,> 45.8,CCOC(=O)C1=C[C@]2(CC)CCCN3CCc4c(n1c1ccccc41)[C@@H]32 [Vinpocetine]
> 45.8,> 45.8,CS(=O)(=O)c1ccc(C(=O)Nc2ccc(Cl)c(-c3ccccn3)c2)c(Cl)c1 [Vismodegib]
> 45.8,> 45.8,Cc1ncc(CO)c(CO)c1O [Vitamin B6]
> 45.8,> 45.8,OCC(CO)N[C@H]1C[C@](O)(CO)[C@@H](O)[C@H](O)[C@H]1O [Voglibose]
> 45.8,> 45.8,CCOC(=O)N[C@@H]1CC[C@@H]2[C@@H](C1)C[C@H]1C(=O)O[C@H](C)[C@H]1[C@H]2/C=C/c1ccc(-c2cccc(F)c2)cn1 [Vorapaxar Sulfate]
> 45.8,> 45.8,C[C@@H](c1ncncc1F)[C@](O)(Cn1cncn1)c1ccc(F)cc1F [Voriconazole]
> 45.8,> 45.8,CC(=O)CC(c1ccccc1)c1c(O)c2ccccc2oc1=O (centres undefined) [Warfarin sodium]
> 45.8,> 45.8,COC(=O)C1=C(C)NC(C)=C(C(=O)OCCc2ccc(N3CCN(C(c4ccccc4)c4ccccc4)CC3)cc2)C1c1cccc([N+](=O)[O-])c1 (centres undefined) [Watanidipine]
> 45.8,> 45.8,CC1=C[C@H](O)CC(C)(C)[C@H]1/C=C/C(C)=C/C=C/C(C)=C/C=C/C=C(C)/C=C/C=C(C)/C=C/C1=C(C)C[C@@H](O)CC1(C)C [Xanthophyll]
> 45.8,> 45.8,CCOC(=O)CN[C@@H](C(=O)N1CC[C@H]1C(=O)NCc1ccc(/C(N)=N\O)cc1)C1CCCCC1 [Ximelagatran]
> 45.8,> 45.8,Cc1cccc(C)c1NC(=O)c1cc(S(N)(=O)=O)c(Cl)cc1O [Xipamide]
> 45.8,> 45.8,Cc1cc(C(C)(C)C)cc(C)c1CC1=NCCN1 [Xylometazoline hydrochloride]
> 45.8,> 45.8,COC(=O)[C@@H]1[C@H]2C[C@H]3c4[nH]c5ccccc5c4CCN3C[C@@H]2CC[C@@H]1O [Yohimbine]
> 45.8,> 45.8,C=CCCCCCCCCC(=O)[O-].C=CCCCCCCCCC(=O)[O-].[Zn+2] [ZINC UNDECYLENATE]
> 45.8,> 45.8,COc1cc(C(=O)NS(=O)(=O)c2ccccc2C)ccc1Cc1cn(C)c2ccc(NC(=O)OC3CCCC3)cc12 [Zafirlukast]
> 45.8,> 45.8,CC(C(=O)O)c1ccc2c(c1)CC(=O)c1ccccc1S2 (centres undefined) [Zaltoprofen]
> 45.8,> 45.8,CC(=O)N[C@H]1[C@H]([C@H](O)[C@H](O)CO)OC(C(=O)O)=C[C@@H]1NC(=N)N [Zanamivir]
> 45.8,> 45.8,O=C(CCC1CCN(Cc2ccccc2)CC1)c1ccc2c(c1)NCCCC2 [Zanapezil fumerate]
> 45.8,> 45.8,CC1=C(/C=C/C(C)=C/C=C/C(C)=C/C=C/C=C(C)/C=C/C=C(C)/C=C/C2=C(C)C[C@@H](O)CC2(C)C)C(C)(C)C[C@H](O)C1 [Zeaxanthin]
> 45.8,> 45.8,CC(c1cc2ccccc2s1)N(O)C(N)=O (centres undefined) [Zileuton]
> 45.8,> 45.8,CCCCN(CCCC)C(=S)[S-].CCCCN(CCCC)C(=S)[S-].[Zn+2] [Zinc dibutyldithiocarbamate]
> 45.8,> 45.8,O=C1Cc2cc(CCN3CCN(c4nsc5ccccc45)CC3)c(Cl)cc2N1 [Ziprasidone]

# More lines, now with the values behind:
SMILES,IC50 cell viability (ICRF193 0 nM) [µM],IC50 cell viability (ICRF193 200 nM) [µM]
COc1cc(C(=O)NC2CCCNC2)cc(OC)c1OC (centres undefined) [Troxipide],> 45.8,> 45.8
CC(C)(C)NCC(O)c1ccccc1Cl (centres undefined) [Tulobuterol hydrochloride],> 45.8,> 45.8
CC(C)C[C@H](NC(=O)[C@@H](O)[C@H](N)Cc1ccccc1)C(=O)O [Ubenimex],> 45.8,> 45.8
OC(c1ccccc1)(c1ccccc1)C12CC[N+](CCOCc3ccccc3)(CC1)CC2 [Umeclidinium bromide],> 45.8,> 45.8
Oc1ncc(N(CCCl)CCCl)c(O)n1 [Uracil mustard],> 45.8,> 45.8
O=c1cc[nH]c(=O)[nH]1 [Uracil],> 45.8,> 45.8
COc1ccccc1N1CCN(CCCNc2cc(=O)n(C)c(=O)n2C)CC1 [Urapidil hydrochloride],> 45.8,> 45.8
CC(=O)OC[C@H]1O[C@@H](n2ccc(=O)[nH]c2=O)[C@H](OC(C)=O)[C@@H]1OC(C)=O [Uridine triacetate],> 45.8,> 45.8
C[C@H](CCC(=O)O)[C@H]1CC[C@H]2[C@@H]3[C@@H](O)C[C@@H]4C[C@H](O)CC[C@]4(C)[C@H]3CC[C@]12C [Ursodiol],> 45.8,> 45.8
CCCCC(=O)N(Cc1ccc(-c2ccccc2-c2nnn[nH]2)cc1)[C@H](C(=O)O)C(C)C [VALSARTAN],> 45.8,> 45.8
NCCC[C@H](N)CC(=O)N[C@H]1CNC(=O)[C@H]([C@H]2C[C@H](O)NC(N)=N2)NC(=O)/C(=C/NC(N)=O)NC(=O)[C@H](CO)NC(=O)[C@H](CO)NC1=O [VIOMYCIN SULFATE],> 45.8,> 45.8
O=C(O)C[C@@H]1CC[C@H](NC(=O)Cc2cccs2)B(O)O1 [Vaborbactam],> 45.8,> 45.8
CC(C)[C@H](N)C(=O)OCCOCn1cnc2c(=O)nc(N)[nH]c21 [Valaciclovir],> 45.8,> 45.8
COc1cc2c(cc1OC)[C@H]1C[C@@H](OC(=O)[C@@H](N)C(C)C)[C@H](CC(C)C)CN1CC2 [Valbenazine],> 45.8,> 45.8
Cc1onc(-c2ccccc2)c1-c1ccc(S(N)(=O)=O)cc1 [Valdecoxib],> 45.8,> 45.8
CC(C)[C@H](N)C(=O)OCC(CO)OCn1cnc2c(=O)[nH]c(N)nc21 (some centres undefined) [Valganciclovir·HCl],> 45.8,> 45.8
CCCC(CCC)C(=O)O [Valproic acid sodium salt],> 45.8,> 45.8
CN[C@H](CC(C)C)C(=O)N[C@H]1C(=O)N[C@@H](CC(N)=O)C(=O)N[C@H]2C(=O)N[C@H]3C(=O)N[C@H](C(=O)N[C@H](C(=O)O)c4cc(O)cc(O)c4-c4cc3ccc4O)[C@H](O)c3ccc(c(Cl)c3)Oc3cc2cc(c3O[C@@H]2O[C@H](CO)[C@@H](O)[C@H](O)[C@H]2O[C@H]2C[C@](C)(N)[C@H](O)[C@H](C)O2)Oc2ccc(cc2Cl)[C@H]1O [Vancomycin hydrochloride],> 45.8,> 45.8
COc1cc2/c(=N/c3ccc(Br)cc3F)nc[nH]c2cc1OCC1CCN(C)CC1 [Vandetanib],> 45.8,> 45.8
O=C(O)CC/C=C\CC[C@@H]1[C@@H](N2CCCCC2)[C@@H](O)C[C@@H]1OCc1ccc(-c2ccccc2)cc1 [Vapiprost hydrochloride],> 45.8,> 45.8
CCCc1nc(C)c2c(=O)nc(-c3cc(S(=O)(=O)N4CCN(CC)CC4)ccc3OCC)[nH]n12 [Vardenafil],> 45.8,> 45.8
CCCC[C@@H](O)/C=C(C)/C=C/C=C/C(=O)N1CCCC1=O [Variotin],> 45.8,> 45.8
CC(=O)O[C@H]1C[C@@H]2CC[C@@H]3[C@H](CC[C@@]4(C)[C@H]3C[C@H]([N+]3(C)CCCCC3)[C@@H]4OC(C)=O)[C@@]2(C)C[C@@H]1N1CCCCC1 [Vecuronium bromide],> 45.8,> 45.8
COc1ccc(C(CN(C)C)C2(O)CCCCC2)cc1 (centres undefined) [Venlafaxine],> 45.8,> 45.8
FC(F)(F)c1cccc(C2=CCN(CCc3ccc4ccccc4c3)CC2)c1 [Xaliproden hydrochloride],> 45.8,> 45.8
Cc1cccc(C)c1NC1=NCCCS1 [Xylazine],> 45.8,> 45.8
Oc1ccc([C@@H]2CNCc3c2ccc(O)c3O)cc1O [Zelandopam],> 45.8,> 45.8
CC(C)NC1CCn2c(=O)[nH]c3cccc(c32)C1O (centres undefined) [Zilpaterol·HCl],> 45.8,> 45.8
